Each structure is given as a SMILES string. pKi: −log10 of the molar value.

In this experiment the target is WDR5 (Homo sapiens, UniProt P61964). As to the kind of experiment: Competition-based fluorescence polarization anisotropy assay. The settings on record: binding to WDR5; displacement of FITC-labeled small molecule probe (analogous to Example J2 or HCH-25) or peptide probe FITC-AHx-SEEEIDVVSV; pH 6.0; Ki converted from IC50. The method in brief:
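Competition fluorescence polarization anisotropy binding to WDR5 using a FITC-labeled peptide probe or a fluorescently labeled small-molecule probe. Buffer: 200 mM phosphate, 300 mM NaCl, 0.5 mM TCEP, 0.1% Chaps, pH 6.0. Displacement data were converted to Ki.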
As to `CN(C)CCCS(=O)(=O)c1cc(Cl)cc(NS(=O)(=O)c2cc(Br)cc(Cl)c2O)c1` [Example S51, 5-Bromo-3-chloro-N-(3-chloro-5-((3-(dimethylamino)propyl)sulfonyl)phenyl)-2-hydroxybenzenesulfonamide], the negative-log Ki (pKi) was 5.84.

Compound `CN(C)CCCS(=O)(=O)c1cc(Cl)cc(NS(=O)(=O)c2cc(Br)ccc2O)c1` [Example S52, 5-Bromo-N-(3-chloro-5-((3-(dimethylamino)propyl)sulfonyl)phenyl)-2-hydroxybenzenesulfonamide] gave a pKi of 6.08.

In the case of `CS(=O)(=O)c1cc(Cl)cc(NS(=O)(=O)c2cc(Br)cc(Cl)c2O)c1F` [Example S54, 5-Bromo-3-chloro-N-(5-chloro-2-fluoro-3-(methylsulfonyl)phenyl)-2-hydroxybenzenesulfonamide], the pKi is 6.10.

For `CS(=O)(=O)c1cc(Cl)cc(NS(=O)(=O)c2cc(Br)cc3c2OCC3)c1O` [Example S55, 5-Bromo-N-(5-chloro-2-hydroxy-3-(methylsulfonyl)phenyl)-2,3-dihydrobenzofuran-7-sulfonamide], the negative-log Ki (pKi) is 6.07.

In the case of `COc1ccc(Br)cc1S(=O)(=O)Nc1cc(C2(C#N)CCC2)cc(S(C)(=O)=O)c1O` [Example S59, 5-Bromo-N-(5-(1-cyanocyclobutyl)-2-hydroxy-3-(methylsulfonyl)phenyl)-2-methoxybenzenesulfonamide], the negative-log Ki (pKi) was 6.51.

`CS(=O)(=O)c1cc(C2(C#N)CCC2)cc(NS(=O)(=O)c2cc(Br)cc(Cl)c2O)c1O` [Example S60, 5-Bromo-3-chloro-N-(5-(1-cyanocyclobutyl)-2-hydroxy-3-(methylsulfonyl)phenyl)-2-hydroxybenzenesulfonamide]: the negative-log Ki (pKi) is 7.30.

Consider `CS(=O)(=O)c1cc(C2(C#N)CCC2)cc(NS(=O)(=O)c2cc(Br)cc3cccnc23)c1O` [Example S61, 6-Bromo-N-(5-(1-cyanocyclobutyl)-2-hydroxy-3-(methylsulfonyl)phenyl)quinoline-8-sulfonamide], for which the negative logarithm of the Ki (pKi) is 6.72.

`CNC(=O)c1cc(S(F)(F)(F)(F)F)cc(NS(=O)(=O)c2cc(Br)cc(Cl)c2O)c1O` [Example S63, 3-((5-Bromo-3-chloro-2-hydroxyphenyl)sulfonamido)-2-hydroxy-N-methyl-5-(pentafluoro-λ^6-sulfaneyl)benzamide] had a pKi of 6.80.

`O=C(O)c1cc(S(F)(F)(F)(F)F)cc(NS(=O)(=O)c2cc(Br)cc(Cl)c2O)c1O` [Example S64, 3-((5-Bromo-3-chloro-2-hydroxyphenyl)sulfonamido)-2-hydroxy-5-(pentafluoro-λ^6-sulfaneyl)benzoic acid] showed a negative logarithm of the Ki (pKi) of 7.70.

`O=C(O)c1cc(S(F)(F)(F)(F)F)cc(NS(=O)(=O)c2cc(Br)ccc2O)c1O` [Example S65, 3-((5-Bromo-2-hydroxyphenyl)sulfonamido)-2-hydroxy-5-(pentafluoro-λ^6-sulfaneyl)benzoic acid] showed a pKi of 7.52.

For the compound `CNC(=O)c1cc(S(F)(F)(F)(F)F)cc(NS(=O)(=O)c2cc(Br)ccc2O)c1O` [Example S66, 3-((5-Bromo-2-hydroxyphenyl)sulfonamido)-2-hydroxy-N-methyl-5-(pentafluoro-λ^6-sulfaneyl)benzamide], the pKi was 7.70.

`CNC(=O)c1cc(S(F)(F)(F)(F)F)cc(NS(=O)(=O)c2cc(Br)cc3cccnc23)c1O` [Example S67] had a negative-log Ki (pKi) of 7.05.

`O=C(O)c1cc(S(F)(F)(F)(F)F)cc(NS(=O)(=O)c2cc(Br)cc3cccnc23)c1O` [Example S68]: the pKi was 7.70.

With `CNC(=O)c1cc(Cl)cc(NS(=O)(=O)c2cc(Br)cc(Cl)c2O)c1` [Example S69, 3-((5-Bromo-3-chloro-2-hydroxyphenyl)sulfonamido)-5-chloro-N-methylbenzamide], the pKi was 6.11.

On to `CNC(=O)c1cc(Cl)cc(NS(=O)(=O)c2cc(Br)ccc2O)c1` [Example S70, 3-((5-Bromo-2-hydroxyphenyl)sulfonamido)-5-chloro-N-methylbenzamide], for which the pKi is 5.53.

`N#CC1(c2cc(NS(=O)(=O)c3cc(Br)cc(Cl)c3O)cc(C(=O)O)c2)CCC1` [Example S71, 3-((5-Bromo-3-chloro-2-hydroxyphenyl)sulfonamido)-5-(1-cyanocyclobutyl)benzoic acid] had a negative-log Ki (pKi) of 8.00.

As to `CS(=O)(=O)c1cc(NS(=O)(=O)c2cc(Br)cc(Cl)c2O)cc(C2(C#N)CCC2)c1` [Example S72, 5-Bromo-3-chloro-N-(3-(1-cyanocyclobutyl)-5-(methylsulfonyl)phenyl)-2-hydroxybenzenesulfonamide], the negative-log Ki (pKi) is 6.82.

As to `CS(=O)(=O)c1cc(NS(=O)(=O)c2cc(Br)ccc2O)cc(C2(C#N)CCC2)c1` [Example S73, 5-bromo-N-(3-(1-cyanocyclobutyl)-5-(methylsulfonyl)phenyl)-2-hydroxybenzenesulfonamide], the pKi is 5.99.

Compound `O=C(O)CNC(=O)c1cc(OC(F)(F)F)cc(NS(=O)(=O)c2cc(Br)ccc2O)c1O` [HCH-1, (3-((5-Bromo-2-hydroxyphenyl)sulfonamido)-2-hydroxy-5-(trifluoromethoxy)benzoyl)glycine] showed a negative-log Ki (pKi) of 6.19.

Compound `O=S(=O)(Nc1cc(Cl)ccc1O)c1cccc(Br)c1` [HCH-1-9-4re, 3-Bromo-N-(5-chloro-2-hydroxyphenyl)benzenesulfonamide] showed a pKi of 4.44.

Regarding `O=S(=O)(Nc1cc(Cl)ccc1O)c1cc(Br)ccc1O` [HCH-1-143-2, 5-Bromo-N-(5-chloro-2-hydroxyphenyl)-2-hydroxybenzenesulfonamide], the pKi was 5.90.

As for `CCc1cc(Br)cc(S(=O)(=O)Nc2cc(Cl)cc(C(=O)NCC3(O)CCN(C)CC3)c2O)c1O` [HCH-2, 3-((5-Bromo-3-ethyl-2-hydroxyphenyl)sulfonamido)-5-chloro-2-hydroxy-N-((4-hydroxy-1-methylpiperidin-4-yl)methyl)benzamide], the pKi is 6.22.

For `O=S(=O)(Nc1cc(OC(F)(F)F)ccc1O)c1cc(Br)ccc1O` [HCH-3-48-1, 5-Bromo-2-hydroxy-N-(2-hydroxy-5-(trifluoromethoxy)phenyl)benzenesulfonamide], the pKi was 6.26.

Regarding `NC(=O)c1cc(OC(F)(F)F)cc(NS(=O)(=O)c2cc(Br)cc(CCCO)c2O)c1O` [HCH-4, 3-((5-Bromo-2-hydroxy-3-(3-hydroxypropyl)phenyl)sulfonamido)-2-hydroxy-5-(trifluoromethoxy)benzamide], the pKi was 6.24.

Turning to `O=C(NC1COC1)c1cc(OC(F)(F)F)cc(NS(=O)(=O)c2cc(Br)ccc2O)c1O` [HCH-9, 3-((5-Bromo-2-hydroxyphenyl)sulfonamido)-2-hydroxy-N-(oxetan-3-yl)-5-(trifluoromethoxy)benzamide], the negative logarithm of the Ki (pKi) was 6.42.

Compound `CCc1cc(Br)cc(S(=O)(=O)Nc2cc(Cl)cc(C(=O)O)c2O)c1O` [HCH-11, 3-((5-Bromo-3-ethyl-2-hydroxyphenyl)sulfonamido)-5-chloro-2-hydroxybenzoic acid] had a negative logarithm of the Ki (pKi) of 6.34.

In the case of `CCc1cc(NS(=O)(=O)c2cc(Br)cc(CC)c2O)c(O)c(C(=O)O)c1` [HCH-12, 3-((5-bromo-3-ethyl-2-hydroxyphenyl)sulfonamido)-5-ethyl-2-hydroxybenzoic acid], the pKi was 6.70.

`CCc1cc(NS(=O)(=O)c2cc(Br)cc(OC(F)(F)F)c2O)c(O)c(C(=O)O)c1` [HCH-13, 3-((5-Bromo-2-hydroxy-3-(trifluoromethoxy)phenyl)sulfonamido)-5-ethyl-2-hydroxybenzoic acid]: the negative logarithm of the Ki (pKi) is 6.66.

For the compound `CCc1cc(Br)cc(S(=O)(=O)Nc2cc(OC(F)(F)F)cc(C(=O)O)c2O)c1O` [HCH-14, 3-((5-Bromo-3-ethyl-2-hydroxyphenyl)sulfonamido)-2-hydroxy-5-(trifluoromethoxy)benzoic acid], the negative logarithm of the Ki (pKi) is 6.89.

On to `O=C(O)c1cc(OC(F)(F)F)cc(NS(=O)(=O)c2cc(Br)cc(OC(F)(F)F)c2O)c1O` [HCH-15, 3-((5-Bromo-2-hydroxy-3-(trifluoromethoxy)phenyl)sulfonamido)-2-hydroxy-5-(trifluoromethoxy)benzoic acid], for which the pKi was 6.77.

In the case of `CCCc1cc(Br)cc(S(=O)(=O)Nc2cc(OC(F)(F)F)cc(C(=O)O)c2O)c1O` [HCH-16, 3-((5-Bromo-2-hydroxy-3-propylphenyl)sulfonamido)-2-hydroxy-5-(trifluoromethoxy)benzoic acid], the pKi was 6.96.

In turn, `CCCc1cc(Br)cc(S(=O)(=O)Nc2cc(Cl)cc(C(=O)O)c2O)c1O` [HCH-17, 3-((5-Bromo-2-hydroxy-3-propylphenyl)sulfonamido)-5-chloro-2-hydroxybenzoic acid] showed a pKi of 6.49.

Take `CCc1cc(NS(=O)(=O)c2cc(Br)ccc2O)c(O)c(C(=O)O)c1` [HCH-18, 3-((5-Bromo-2-hydroxyphenyl)sulfonamido)-5-ethyl-2-hydroxybenzoic acid]: the pKi is 7.22.

In turn, `CCc1cc(NS(=O)(=O)c2cc(Br)cc(F)c2O)c(O)c(C(=O)O)c1` [HCH-21, 3-((5-Bromo-3-fluoro-2-hydroxyphenyl)sulfonamido)-5-ethyl-2-hydroxybenzoic acid] had a pKi of 6.34.

In turn, `CCc1cc(NS(=O)(=O)c2cc(Br)cc(Cl)c2O)c(O)c(C(=O)O)c1` [HCH-22, 3-((5-Bromo-3-chloro-2-hydroxyphenyl)sulfonamido)-5-ethyl-2-hydroxybenzoic acid] had a negative-log Ki (pKi) of 7.05.

In turn, `O=C(O)c1cc(OC(F)(F)F)cc(NS(=O)(=O)c2cc(Br)cc(Cl)c2O)c1O` [HCH-24, 3-((5-Bromo-3-chloro-2-hydroxyphenyl)sulfonamido)-2-hydroxy-5-(trifluoromethoxy)benzoic acid] had a negative logarithm of the Ki (pKi) of 7.40.

The compound `NC(=O)c1cc(Cl)cc(NS(=O)(=O)c2cc(Br)cc(Cl)c2O)c1O` [HCH-25, 3-((5-Bromo-3-chloro-2-hydroxyphenyl)sulfonamido)-5-chloro-2-hydroxybenzamide] had a negative-log Ki (pKi) of 6.57.
